According to PubChem BioAssay AID248 (DTP/NCI, 2004):
Values joined by “and” are separate entries in the source; they are usually repeats but may differ in a detail not shown here. Equal values may be shown once. Inconclusive results and toxic doses are left out. No stated cut-off is given here; in the data, active means T/C of 150% or more; inactive means T/C below 125%.

System: L1210 leukemia ip in BDF1 mice, survival T/C
Assay: NCI In Vivo Anticancer Drug Screen. Data for tumor model L1210 Leukemia (intraperitoneal) in B6D2F1 (BDF1) mice
Details: endpoint: mean survival time, higher = longer survival
Method in brief: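 Mice bearing the transplanted tumor received compound or vehicle. Survival of the treated group was divided by that of the vehicle-treated control group to give the ratio.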

[1] = dose: 100.0 mg/kg/injection, schedule: Q01DX009 (ip), vehicle: saline with Tween-80
[2] = dose: 200.0 mg/kg/injection, schedule: Q01DX009 (ip), vehicle: saline with Tween-80
[3] = dose: 400.0 mg/kg/injection, schedule: Q01DX009 (ip), vehicle: saline with Tween-80
[4] = dose: 100.0 mg/kg/injection, schedule: Q01DX001 (ip), vehicle: carboxymethylcellulose (CMC)
[5] = dose: 200.0 mg/kg/injection, schedule: Q01DX001 (ip), vehicle: carboxymethylcellulose (CMC)
[6] = dose: 400.0 mg/kg/injection, schedule: Q01DX001 (ip), vehicle: carboxymethylcellulose (CMC)
[7] = dose: 100.0 mg/kg/injection, schedule: Q01DX009 (ip), vehicle: Klucel (hydroxypropylcellulose) (HPC)
[8] = dose: 100.0 mg/kg/injection, schedule: Q04DX003 (ip), vehicle: Klucel (hydroxypropylcellulose) (HPC)
[9] = dose: 100.0 mg/kg/injection, schedule: Q04DX003 (ip), vehicle: saline with Tween-80
[10] = dose: 200.0 mg/kg/injection, schedule: Q01DX009 (ip), vehicle: Klucel (hydroxypropylcellulose) (HPC)
[11] = dose: 200.0 mg/kg/injection, schedule: Q04DX003 (ip), vehicle: saline with Tween-80
[12] = dose: 400.0 mg/kg/injection, schedule: Q04DX003 (ip), vehicle: Klucel (hydroxypropylcellulose) (HPC)
[13] = dose: 400.0 mg/kg/injection, schedule: Q04DX003 (ip), vehicle: saline with Tween-80
[14] = dose: 100.0 mg/kg/injection, schedule: Q04DX003 (ip), vehicle: saline
[15] = dose: 200.0 mg/kg/injection, schedule: Q04DX003 (ip), vehicle: saline
[16] = dose: 400.0 mg/kg/injection, schedule: Q04DX003 (ip), vehicle: saline
[17] = dose: 200.0 mg/kg/injection, schedule: Q04DX003 (ip), vehicle: Klucel (hydroxypropylcellulose) (HPC)
[18] = dose: 400.0 mg/kg/injection, schedule: Q01DX009 (ip), vehicle: Klucel (hydroxypropylcellulose) (HPC)
[19] = dose: 25.0 mg/kg/injection, schedule: Q01DX009 (ip), vehicle: saline with Tween-80
[20] = dose: 50.0 mg/kg/injection, schedule: Q01DX009 (ip), vehicle: saline with Tween-80

Measured: T/C

CCCC(=O)CC(C)=O.CCCC(=O)CC(C)=O.[Cu]
inactive: dose: 5.0 mg/kg/injection, schedule: Q04DX003 (ip), vehicle: Klucel (hydroxypropylcellulose) (HPC) 95 % of control | dose: 6.0 mg/kg/injection, schedule: Q01DX009 (ip), vehicle: Klucel (hydroxypropylcellulose) (HPC) 92 % of control | dose: 10.0 mg/kg/injection, schedule: Q04DX003 (ip), vehicle: Klucel (hydroxypropylcellulose) (HPC) 98 % of control | dose: 12.0 mg/kg/injection, schedule: Q01DX009 (ip), vehicle: Klucel (hydroxypropylcellulose) (HPC) 101 % of control | dose: 20.0 mg/kg/injection, schedule: Q04DX003 (ip), vehicle: Klucel (hydroxypropylcellulose) (HPC) 96 % of control | dose: 40.0 mg/kg/injection, schedule: Q04DX003 (ip), vehicle: Klucel (hydroxypropylcellulose) (HPC) 93 % of control

O=C(O)CCN1C(=O)c2ccccc2C1=O
inactive: [1] 96 % of control | [2] 95 % of control | [3] 102 % of control

COc1ccc(-c2cc(-c3ccccc3)[nH]c(=O)c2N(C)C)cc1
inactive: [4] 97 % of control | [5] 91 % of control | [6] 97 % of control

Cc1c(Cl)cccc1N1C(=O)CC(Sc2ccccc2N)C1=O (configuration not stated)
inactive: [7] 95 % of control | [1] 106 % of control | [8] 92 % of control | [9] 94 % of control | [10] 92 % of control | [2] 107 % of control | [11] 88 % of control | [3] 109 % of control | [12] 89 % of control | [13] 93 % of control

CC(=O)OC1(C2(OC(C)=O)C=CC(=NS(=O)(=O)c3ccccc3)C=C2)C=CC(=NS(=O)(=O)c2ccccc2)C=C1 (configuration not stated)
inactive: [1] 100 % of control | [9] 94 % of control | [2] 93 % of control | [11] 90 % of control | [3] 97 % of control | [13] 87 % of control

CCOC(=O)CN1CCN2C(=O)N(CC)CCC2C1 (configuration not stated)
inactive: [14] 95 % of control | [15] 90 % of control | [16] 101 % of control

CCCCOC(=O)NC/C(Br)=C/Br
inactive: [7] 96 % of control | [8] 100 % of control | [10] 94 % of control | [17] 96 % of control | [18] 91 % of control | [12] 105 % of control

O=C1OC(=C(Br)Br)C2C3C=CC(C3)C12 (configuration not stated)
inactive: [14] 98 % of control | [15] 107 % of control

O=C(O)c1c(Cl)ccc([N+](=O)[O-])c1Cl
inactive: [8] 88 % of control | [17] 95 % of control | [12] 92 % of control

CCCCOC(=O)c1ccc(NC(=O)Nc2ccccc2CC)cc1
inactive: [7] 102 % of control | [10] 109 % of control | [18] 94 % of control

CCCCCCC(C)C1CCCCC1 (configuration not stated)
inactive: dose: 100.0 mg/kg/injection, schedule: Q01DX001 (ip), vehicle: saline with Tween-80 96 % of control | dose: 200.0 mg/kg/injection, schedule: Q01DX001 (ip), vehicle: saline with Tween-80 93 % of control | dose: 400.0 mg/kg/injection, schedule: Q01DX001 (ip), vehicle: saline with Tween-80 93 % of control

C/C=C\C=C\COC(=O)CC(C)C
inactive: dose: 100.0 mg/kg/injection, schedule: Q04DX002 (ip), vehicle: saline 103 % of control | dose: 200.0 mg/kg/injection, schedule: Q04DX002 (ip), vehicle: saline 103 % of control | dose: 400.0 mg/kg/injection, schedule: Q04DX002 (ip), vehicle: saline 103 % of control

O=C(O)C(O)C(O)C(O)CO.[Zn+2] (configuration not stated)
inactive: dose: 6.25 mg/kg/injection, schedule: Q01DX009 (ip), vehicle: saline with Tween-80 95 % of control | dose: 6.25 mg/kg/injection, schedule: Q04DX002 (ip), vehicle: saline with Tween-80 124 % of control | dose: 12.5 mg/kg/injection, schedule: Q01DX009 (ip), vehicle: saline with Tween-80 105 % of control and 100 % of control | dose: 12.5 mg/kg/injection, schedule: Q04DX002 (ip), vehicle: saline with Tween-80 109 % of control | [19] 91 % of control | dose: 25.0 mg/kg/injection, schedule: Q04DX002 (ip), vehicle: saline with Tween-80 95 % of control | [20] 91 % of control

O=C(OCC(O)C(O)C(O)C(O)COC(=O)c1ccccc1)c1ccccc1 (configuration not stated)
inactive: [4] 98 % of control | [5] 95 % of control | [6] 95 % of control

Cc1n(CC(C)C)c2c([n+]1C)C(=O)c1ccccc1C2=O
inactive: dose: 0.03 mg/kg/injection, schedule: Q01DX001 (ip), vehicle: saline 98 % of control | dose: 0.06 mg/kg/injection, schedule: Q01DX001 (ip), vehicle: saline 109 % of control | dose: 0.12 mg/kg/injection, schedule: Q01DX001 (ip), vehicle: saline 106 % of control | dose: 0.24 mg/kg/injection, schedule: Q01DX001 (ip), vehicle: saline 101 % of control | dose: 0.25 mg/kg/injection, schedule: Q01DX015 (ip), vehicle: saline 97 % of control | dose: 0.5 mg/kg/injection, schedule: Q01DX015 (ip), vehicle: saline 95 % of control | dose: 1.0 mg/kg/injection, schedule: Q01DX015 (ip), vehicle: saline 106 % of control and 108 % of control | dose: 2.0 mg/kg/injection, schedule: Q01DX015 (ip), vehicle: saline 108 % of control | dose: 2.0 mg/kg/injection, schedule: Q04DX003 (ip), vehicle: saline 91 % of control

CCCC(C)OP(=O)(OCC)OCC (configuration not stated)
inactive: [7] 94 % of control | [10] 100 % of control

CCC(C(O)c1cccs1)C(O)(C(F)(F)F)C(F)(F)F (configuration not stated)
inactive: [1] 95 % of control | [9] 95 % of control | [2] 116 % of control | [11] 95 % of control | [3] 97 % of control | [13] 93 % of control

CC(C)(C)c1cc(Br)c(O)c(C(=O)O)c1
inactive: [5] 98 % of control

O=C(O)c1ccc(-c2c3ccc(=O)cc-3oc3cc(O)ccc23)c(C(=O)O)c1
inactive: [14] 97 % of control | [15] 105 % of control | [16] 97 % of control

CCOC(=O)CCC(NC(=O)CCCCSc1ncnc2nc[nH]c12)C(=O)OCC (configuration not stated)
inactive: [19] 97 % of control | dose: 25.0 mg/kg/injection, schedule: Q01DX009 (oral), vehicle: saline with Tween-80 90 % of control | [20] 101 % of control | dose: 50.0 mg/kg/injection, schedule: Q01DX009 (oral), vehicle: saline with Tween-80 86 % of control | [1] 106 % of control | dose: 100.0 mg/kg/injection, schedule: Q01DX009 (oral), vehicle: saline with Tween-80 100 % of control | [2] 111 % of control | dose: 200.0 mg/kg/injection, schedule: Q01DX009 (oral), vehicle: saline with Tween-80 88 % of control | [3] 107 % of control | dose: 400.0 mg/kg/injection, schedule: Q01DX009 (oral), vehicle: saline with Tween-80 95 % of control
